Reference: patent US20240294535A1, “IMIDAZOTRIAZINE THIOBENZAMIDE DERIVATIVE, AND PREPARATION METHOD AND APPLICATION THEREOF” (Yunbaiyao Zhengwu Science and Technology (Shanghai) Co., …, priority 2023, published 2024)
Like-named read-outs stand apart in the source and are kept apart here.

Tests used:
[1] = system: Vero cells; test: Anti-proliferation activity, CTG, Vero cells; type: cell-based
Procedure: (§1) Experimental objective: To evaluate the anti-proliferation activities of the compounds against MKN-45 cells, EBC-1 cells, Hs746T cells and Vero cells.
(§2) Experimental methods: Tumor cell lines were cultured and periodically passaged, and cells in logarithmic growth phase were taken for plate spreading. The cells were stained with Trypan blue, counted and adjusted to an appropriate density. 50 μL of cell suspension was added into each well of a culture plate, and 50 μL of nutrient solution without cells was added into a blank control well. The culture plate was precultured for 24 h in an incubator under the condition of 37° C., 5% CO2 and 100% relative humidity.
(§3) The DMSO stock solutions of the compounds 1-28 and Capmatinib were prepared, and diluted with Tecan D300e. Each compound was diluted to 7 concentration levels: 0.50 μM, 0.125 μM, 0.031 μM, 0.0078 μM, 0.0020 μM, 0.00049 μM, 0.00012 μM. The experiment was carried out in triplicate.
(§4) 50 μL of the solution was added into each designated well, and the culture plate was incubated for 48 h. 50 μL of CTG working solution was added to each well. The culture plate was wrapped with aluminum foil to avoid light and shaken in the shaker for 2 min to induce cell lysis. The culture plate was placed at room temperature for 10 min to stabilize light-emitting signal which was detected with a 2014 EnVision plate reader. Experimental data was processed by GraphPad Prism 7 to calculate IC50.

[2] = system: Hs746T cells; test: Anti-proliferation activity, CTG, Hs746T cells; type: cell-based
Procedure: as §1, §2, §3, §4

[3] = system: EBC-1 cells; test: Anti-proliferation activity, CTG, EBC-1 cells; type: cell-based, human
Procedure: as §1, §2, §3, §4

[4] = biological target: c-MET (Homo sapiens (Human), UniProt P08581); test: c-MET kinase inhibitory activity (ELISA, poly(Glu,Tyr) substrate); type: biochemical; settings: read-out: c-MET kinase inhibitory enzymatic activity IC50
[5] = system: MKN-45 cells; test: Anti-proliferation activity, CTG, MKN-45 cells; type: cell-based
Procedure: as §1, §2, §3, §4

[6] = in vivo; settings: both, Kunming, mouse, po
[7] = system: SPF Kunming mice; settings: mouse, in vivo, po
[8] = system: human EBC-1 cell subcutaneous xenograft model; test: In vivo anti-tumor assessment in EBC-1 cell xenograft tumor mouse model; design: species or system mice; settings: 10 mg/kg P.O. QD × 15 days; for inhibition of growth of the tumor in mice (tumor volume change): FIG. 2
Procedure: Experimental objective: To investigate in vivo efficacy of representative compounds on human lung squamous carcinoma cell (human EBC-1 cell) subcutaneous xenograft model.
Experimental methods: The EBC-1 cell xenograft tumor mouse model was used, according to the diameters of tumor, the tumor volume (TV), relative tumor volume (RTV), relative tumor proliferation rate (T/C (%)) and tumor growth inhibition value (TGI (%)) were calculated.
TGI (%) or T/C (%) of the compounds was evaluated. TGI (%) reflects a tumor growth inhibitory rate. TGI (%) was calculated as follows: TGI (%)=[1−(average tumor volume at the end of administration in a treatment group-average tumor volume at the beginning of administration in the treatment group)/(average tumor volume at the end in a solvent control group-average tumor volume at the beginning in the solvent control group)]×100%.
T/C (%) was calculated as follows: T/C (%)=TRTV/CRTV×100%; where TRTV is treatment RTV, and CRTV is negative control RTV. According to the measurement results of the tumor, RTV was calculated, and the calculating formula for RTV is as follows: RTV=Vt/V0; where V0 is the average tumor volume measured on the day of first administration; and Vt is the average tumor volume measured on a specified day. TRTV and CRTV were measured on the same day.

[9] = Chlorocebus sabaeus, Vero cells, 48 h, CTG
[10] = Homo sapiens, Hs746T cells, 48 h, CTG
[11] = Homo sapiens, EBC-1 cells, 48 h, CTG
[12] = Homo sapiens, MKN-45 cells, 48 h, CTG

Sequence of c-MET (P08581 25-1390): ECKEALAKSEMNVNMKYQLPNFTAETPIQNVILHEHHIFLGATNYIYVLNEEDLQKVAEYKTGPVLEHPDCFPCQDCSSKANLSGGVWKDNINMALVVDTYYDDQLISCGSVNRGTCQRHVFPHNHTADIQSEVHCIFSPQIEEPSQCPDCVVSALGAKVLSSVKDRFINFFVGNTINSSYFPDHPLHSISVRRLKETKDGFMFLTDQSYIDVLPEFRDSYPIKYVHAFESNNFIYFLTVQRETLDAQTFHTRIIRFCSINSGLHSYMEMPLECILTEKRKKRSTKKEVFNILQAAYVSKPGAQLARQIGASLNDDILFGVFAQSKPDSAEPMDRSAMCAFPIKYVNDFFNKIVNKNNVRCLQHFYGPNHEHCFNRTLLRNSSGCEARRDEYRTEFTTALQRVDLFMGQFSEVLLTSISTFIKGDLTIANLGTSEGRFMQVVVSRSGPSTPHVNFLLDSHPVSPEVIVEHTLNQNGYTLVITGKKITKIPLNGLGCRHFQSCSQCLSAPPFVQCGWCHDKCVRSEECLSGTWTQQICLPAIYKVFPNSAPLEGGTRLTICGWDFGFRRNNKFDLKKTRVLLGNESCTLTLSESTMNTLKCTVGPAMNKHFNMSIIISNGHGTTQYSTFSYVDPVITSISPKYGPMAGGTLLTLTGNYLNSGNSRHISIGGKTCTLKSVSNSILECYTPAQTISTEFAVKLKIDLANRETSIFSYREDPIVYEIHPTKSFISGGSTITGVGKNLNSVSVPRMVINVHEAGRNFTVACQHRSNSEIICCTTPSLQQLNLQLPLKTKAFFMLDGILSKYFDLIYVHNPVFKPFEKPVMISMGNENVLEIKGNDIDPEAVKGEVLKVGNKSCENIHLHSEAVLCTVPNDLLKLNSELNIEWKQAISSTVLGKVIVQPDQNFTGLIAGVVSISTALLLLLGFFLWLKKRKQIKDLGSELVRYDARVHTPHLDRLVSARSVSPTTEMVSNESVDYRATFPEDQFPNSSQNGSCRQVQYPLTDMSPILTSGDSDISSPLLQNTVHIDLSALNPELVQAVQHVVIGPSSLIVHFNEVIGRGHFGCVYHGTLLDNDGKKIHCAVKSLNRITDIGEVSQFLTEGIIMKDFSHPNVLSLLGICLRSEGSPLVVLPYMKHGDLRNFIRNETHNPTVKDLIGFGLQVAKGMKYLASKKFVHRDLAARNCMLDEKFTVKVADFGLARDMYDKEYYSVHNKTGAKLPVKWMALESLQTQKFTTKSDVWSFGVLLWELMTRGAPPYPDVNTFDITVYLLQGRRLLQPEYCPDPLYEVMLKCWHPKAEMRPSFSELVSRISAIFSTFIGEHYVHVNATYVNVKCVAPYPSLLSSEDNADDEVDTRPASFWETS

| Compound | IC50 [1, 9] | IC50 [2, 10] | IC50 [3, 11] | IC50 ([4]; ATP 4 μM, 37° C. 1 h) | IC50 [5, 12] | LD50 [6] | IC50 ([1]; Vero cells, 48 h, CTG) | IC50 ([2]; Hs746T cells, 48 h, CTG) | IC50 ([3]; EBC-1 cells, 48 h, CTG) | LD50 [7] | IC50 ([5]; MKN-45 cells, 48 h, CTG) | further results |
| --- | --- | --- | --- | --- | --- | --- | --- | --- | --- | --- | --- | --- |
| CNC(=S)c1ccc(-c2cnc3ncc(Cc4cc(F)c5ncccc5c4F)n3n2)cc1F [Compound 14] | 226 nM | 1.1 nM | 1.2 nM | 0.0026 nM | 1.5 nM | 291 mg/kg | – | – | – | – | – | – |
| CNC(=S)c1ccc(-c2cnc3ncc(Cc4ccc5occc5c4)n3n2)cc1F [Compound 18] | 148 nM | 1.5 nM | 1.1 nM | 0.0013 nM | 1.5 nM | 302 mg/kg | – | – | – | – | – | – |
| CNC(=S)c1ccc(-c2cnc3ncc(Cc4cc(F)c5ncccc5c4)n3n2)cc1F [Compound 13] | – | – | – | 0.0017 nM | – | – | 152 nM | 1.4 nM | 1.7 nM | 314 mg/kg | 1.2 nM | – |
| CC(C)NC(=S)c1ccc(-c2cnc3ncc(Cc4ccc5ncccc5c4)n3n2)cc1F [Compound 3] | 101 nM | 1.5 nM | 1.8 nM | 0.0016 nM | 1.5 nM | 291 mg/kg | – | – | – | – | – | – |
| CNC(=S)c1ccc(-c2cnc3ncc(Cc4ccc5ncccc5c4)n3n2)cc1Cl [Compound 8] | – | – | – | 0.0019 nM | – | – | 142 nM | 1.8 nM | 1.8 nM | 321 mg/kg | 1.7 nM | – |
| CNC(=S)c1ccc(-c2cnc3ncc(Cc4ccc5ncccc5c4)n3n2)cc1F [Compound 1] | – | – | – | 0.0022 nM | – | – | 129 nM | 1.6 nM | 1.4 nM | 293 mg/kg | 1.5 nM | T/C(%) [8]: 15.09%; TGI(%) [8]: 103.24%; Tumor Volume (Day 15) [8]: 136 ± 17 mm^3; inhibition of growth of the tumor in mice (tumor volume change) ([8]; end of the experiment): better inhibitory effects |
| CNC(=S)c1ccc(-c2cnc3ncc(Cc4cc(C(F)(F)F)c5ncccc5c4)n3n2)cc1F [Compound 16] | – | – | – | 0.0015 nM | – | – | 156 nM | 1.7 nM | 1.3 nM | 296 mg/kg | 1.3 nM | T/C(%) [8]: 17.98%; TGI(%) [8]: 99.73%; Tumor Volume (Day 15) [8]: 162 ± 23 mm^3; inhibition of growth of the tumor in mice (tumor volume change) ([8]; end of the experiment): better inhibitory effects |
| Fc1cc(-c2cnc3ncc(Cc4ccc5ncccc5c4)n3n2)ccc1C(=S)NC1CC1 [Compound 4] | 216 nM | 1.4 nM | 1.8 nM | 0.0025 nM | 1.9 nM | 320 mg/kg | – | – | – | – | – | – |
| CNC(=S)c1ccc(-c2cnc3ncc(/C(=N/OC)c4ccc5ncccc5c4)n3n2)cc1F [Compound 27] | – | – | – | 0.0019 nM | – | – | 163 nM | 1.8 nM | 1.5 nM | 310 mg/kg | 1.3 nM | – |
| CNC(=S)c1ccc(-c2cnc3ncc(Cc4ccc5scnc5c4)n3n2)cc1F [Compound 19] | 251 nM | 1.4 nM | 1.4 nM | 0.0019 nM | 1.9 nM | 297 mg/kg | – | – | – | – | – | – |
| CNC(=S)c1ccc(-c2cnc3ncc(C(N)c4ccc5ncccc5c4)n3n2)cc1F (centres unmarked) [Compound 26] | – | – | – | 0.0017 nM | – | – | 282 nM | 1.1 nM | 1.8 nM | 295 mg/kg | 1.1 nM | – |
| CNC(=S)c1ccc(-c2cnc3ncc(Cc4ccc5ncccc5c4)n3n2)c(F)c1F [Compound 7] | – | – | – | 0.0022 nM | – | – | 127 nM | 1.8 nM | 1.2 nM | 305 mg/kg | 1.3 nM | – |
| CNC(=S)c1ccc(-c2cnc3ncc(C(O)c4ccc5ncccc5c4)n3n2)cc1F (centres unmarked) [Compound 21] | – | – | – | 0.0014 nM | – | – | 132 nM | 1.1 nM | 1.3 nM | 298 mg/kg | 1.2 nM | – |
| CNC(=S)c1ccc(-c2cnc3ncc(Cc4ccc5ncccc5c4)n3n2)cc1NC [Compound 10] | 164 nM | 1.5 nM | 1.9 nM | 0.0016 nM | 1.8 nM | 292 mg/kg | – | – | – | – | – | – |
| CNC(=S)c1ccc(-c2cnc3ncc(Cc4ccc5ncccc5c4)n3n2)cc1O [Compound 11] | 231 nM | 1.4 nM | 1.8 nM | 0.0025 nM | 1.4 nM | 296 mg/kg | – | – | – | – | – | – |
| CNC(=S)c1ccc(-c2cnc3ncc(C(=O)c4ccc5ncccc5c4)n3n2)cc1F [Compound 22] | – | – | – | 0.0016 nM | – | – | 231 nM | 1.8 nM | 1.7 nM | – | 1.5 nM | – |
| CNC(=S)c1ccc(-c2cnc3ncc(Cc4ccc5c(c4)OCO5)n3n2)cc1F [Compound 20] | 164 nM | 1.2 nM | 1.8 nM | 0.0021 nM | 1.1 nM | 305 mg/kg | – | – | – | – | – | – |
| CNC(=S)c1ccc(-c2cnc3ncc(Cc4ccc5ncccc5c4)n3n2)c(F)c1 [Compound 5] | – | – | – | 0.0021 nM | – | – | 138 nM | 1.6 nM | 1.2 nM | 298 mg/kg | 1.6 nM | – |
| CNC(=S)c1ccc(-c2cnc3ncc(C(F)(F)c4ccc5ncccc5c4)n3n2)cc1F [Compound 28] | – | – | – | 0.0018 nM | – | – | 237 nM | 1.4 nM | 1.2 nM | 294 mg/kg | 1.5 nM | – |
| CNC(=O)c1ccc(-c2cnc3ncc(Cc4ccc5ncccc5c4)n3n2)cc1F [Capmatinib, reference compound] | 68 nM | 4.5 nM | 3.9 nM | – | 5.7 nM | 164 mg/kg | – | – | – | – | – | T/C(%) [8]: 24.97%; TGI(%) [8]: 91.23%; Tumor Volume (Day 15) [8]: 225 ± 25 mm^3; changes in body weight of the mice ([8]; end of the experiment, FIG. 1): greater losses in body weight compared to those in the other groups; inhibition of growth of the tumor in mice (tumor volume change) ([8]; end of the experiment): could effectively inhibit the growth of the tumor in mice |
| CNC(=S)c1ccc(-c2cnc3ncc(C(c4ccc5ncccc5c4)N(C)C)n3n2)cc1F (centres unmarked) [Compound 25] | – | – | – | – | – | – | – | – | – | 287 mg/kg | – | IC50 [1]: 192 nM; IC50 [2]: 1.3 nM; IC50 [3]: 1 nM; IC50 [4]: 0.0023 nM; IC50 [5]: 1.3 nM |
| CN(C)C(=S)c1ccc(-c2cnc3ncc(Cc4ccc5ncccc5c4)n3n2)cc1F [Compound 2] | 126 nM | 1.4 nM | 1.2 nM | 0.0019 nM | 1.1 nM | 284 mg/kg | – | – | – | – | – | – |
| CNC(=S)c1ccc(-c2cnc3ncc(Cc4ccc5ncccc5c4)n3n2)cc1OC [Compound 12] | 236 nM | 1.1 nM | 1.7 nM | 0.0019 nM | 1.1 nM | 286 mg/kg | – | – | – | – | – | – |
| CNC(=S)c1cc(F)c(-c2cnc3ncc(Cc4ccc5ncccc5c4)n3n2)cc1F [Compound 6] | – | – | – | 0.0015 nM | – | – | 116 nM | 1.9 nM | 1.9 nM | 292 mg/kg | 1.9 nM | – |
| CNC(=S)c1ccc(-c2cnc3ncc(Cc4cc(Cl)c5ncccc5c4)n3n2)cc1F [Compound 15] | – | – | – | 0.0013 nM | – | – | 238 nM | 1.3 nM | 1.5 nM | 305 mg/kg | 1.6 nM | – |
| CNC(=S)c1ccc(-c2cnc3ncc(C(OC)c4ccc5ncccc5c4)n3n2)cc1F (centres unmarked) [Compound 23] | – | – | – | 0.0015 nM | – | – | 157 nM | 1.4 nM | 1.1 nM | 320 mg/kg | 1.7 nM | – |
| CNC(=S)c1ccc(-c2cnc3ncc(Cc4ccc5ncccc5c4)n3n2)cc1N [Compound 9] | 252 nM | 1.4 nM | 1.6 nM | 0.0017 nM | 1.8 nM | 297 mg/kg | – | – | – | – | – | – |
